# Results reported in ChEMBL document CHEMBL4507297, “Data for DCP probe PF-04457845” (2021).
# Experiments:
# [1] = target: 5-hydroxytryptamine receptor 2C (Homo sapiens, UniProt P28335); assay: GPCRScan assay: inhibition of 5-HT2C; set-up: radioligand conc. used [nm] 1.0 – 2.5, parental cells HEK T
# [2] = target: Alpha-2C adrenergic receptor (Homo sapiens, UniProt P18825); assay: GPCRScan assay: inhibition of Alpha2C; set-up: radioligand conc. used [nm] 0.5 – 1.0, parental cells stable MDCK
# [3] = GPCRScan assay: inhibition of GABA/PBR; set-up: species or system Rattus norvegicus; radioligand conc. used [nm] 0.3 – 2.0, parental cells brain tissue
# [4] = target: GABA-A receptor; anion channel (Homo sapiens) (UniProt P14867+P47870+P18507+P28472+P48169+Q99928+Q9UN88+P34903+O00591+O14764+Q8N1C3+P18505+P78334+P47869+P31644+Q16445); assay: BZD (central) CEREP ligand profiling; type: protein-complex assay; conditions: Compound concentration 10.0 uM
# Cannabinoid receptor 2 = Cannabinoid receptor 2 (Homo sapiens, UniProt P34972); assay: CB2 (h) CEREP ligand profiling
# Chain of Cannabinoid receptor 2 (P34972 whole entry): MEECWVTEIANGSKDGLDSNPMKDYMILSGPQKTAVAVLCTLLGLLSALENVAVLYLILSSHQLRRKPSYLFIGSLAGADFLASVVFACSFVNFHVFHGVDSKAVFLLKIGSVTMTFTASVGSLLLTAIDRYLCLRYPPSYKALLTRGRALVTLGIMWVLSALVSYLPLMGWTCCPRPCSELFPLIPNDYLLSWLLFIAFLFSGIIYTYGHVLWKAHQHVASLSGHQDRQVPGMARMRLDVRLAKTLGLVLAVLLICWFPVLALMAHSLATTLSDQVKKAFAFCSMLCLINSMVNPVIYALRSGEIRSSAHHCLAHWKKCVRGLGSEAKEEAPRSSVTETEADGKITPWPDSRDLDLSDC
# [5] = target: Glutamate receptor ionotropic, AMPA (Rattus norvegicus) (UniProt P19491+P19492+P19493+P19490); assay: AMPA CEREP ligand profiling; type: protein-complex assay; conditions: Compound concentration 10.0 uM
# [6] = target: Histamine H1 receptor (Homo sapiens) (UniProt P35367); assay: H1 (h) CEREP ligand profiling; conditions: Compound concentration 10.0 uM
# Chain of Histamine H1 receptor (Homo sapiens) (P35367 whole entry): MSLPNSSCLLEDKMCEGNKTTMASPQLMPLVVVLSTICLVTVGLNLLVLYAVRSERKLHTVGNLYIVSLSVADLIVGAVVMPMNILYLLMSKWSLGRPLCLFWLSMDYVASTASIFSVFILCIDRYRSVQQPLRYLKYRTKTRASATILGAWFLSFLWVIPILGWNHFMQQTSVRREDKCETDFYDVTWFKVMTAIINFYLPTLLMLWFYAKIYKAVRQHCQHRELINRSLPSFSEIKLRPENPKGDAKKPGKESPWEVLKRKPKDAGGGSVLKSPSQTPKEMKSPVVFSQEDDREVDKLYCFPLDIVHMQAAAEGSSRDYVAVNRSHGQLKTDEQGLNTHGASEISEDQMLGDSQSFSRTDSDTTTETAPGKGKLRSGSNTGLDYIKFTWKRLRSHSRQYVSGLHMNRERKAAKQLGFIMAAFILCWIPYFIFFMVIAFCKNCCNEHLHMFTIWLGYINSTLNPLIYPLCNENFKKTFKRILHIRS
# [7] = target: Neuronal acetylcholine receptor; alpha4/beta2 (Homo sapiens) (UniProt P17787+P43681); assay: N(neuronal) (α-BGTX-insensitive) (α4β2 nicotinic receptor) CEREP ligand profiling; conditions: Compound concentration 10.0 uM
# [8] = target: Mu-type opioid receptor (Homo sapiens) (UniProt P35372); assay: mu (h) (MOP) (agonist site) CEREP ligand profiling; conditions: Compound concentration 10.0 uM
# Chain of Mu-type opioid receptor (Homo sapiens) (P35372 whole entry): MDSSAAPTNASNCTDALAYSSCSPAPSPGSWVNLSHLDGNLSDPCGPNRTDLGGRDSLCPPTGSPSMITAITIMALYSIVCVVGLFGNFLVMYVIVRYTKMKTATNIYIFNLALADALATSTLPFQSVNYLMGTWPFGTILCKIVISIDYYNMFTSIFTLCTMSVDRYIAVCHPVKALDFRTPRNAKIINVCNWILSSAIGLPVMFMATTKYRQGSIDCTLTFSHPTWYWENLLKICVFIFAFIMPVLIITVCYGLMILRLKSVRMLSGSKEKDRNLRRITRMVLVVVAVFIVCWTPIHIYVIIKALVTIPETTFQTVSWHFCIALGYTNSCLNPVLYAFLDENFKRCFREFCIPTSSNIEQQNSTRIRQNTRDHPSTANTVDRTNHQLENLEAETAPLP
# [9] = target: Delta-type opioid receptor (Homo sapiens) (UniProt P41143); assay: delta2 (h) (DOP) CEREP ligand profiling; conditions: Compound concentration 10.0 uM
# Chain of Delta-type opioid receptor (Homo sapiens) (P41143 whole entry): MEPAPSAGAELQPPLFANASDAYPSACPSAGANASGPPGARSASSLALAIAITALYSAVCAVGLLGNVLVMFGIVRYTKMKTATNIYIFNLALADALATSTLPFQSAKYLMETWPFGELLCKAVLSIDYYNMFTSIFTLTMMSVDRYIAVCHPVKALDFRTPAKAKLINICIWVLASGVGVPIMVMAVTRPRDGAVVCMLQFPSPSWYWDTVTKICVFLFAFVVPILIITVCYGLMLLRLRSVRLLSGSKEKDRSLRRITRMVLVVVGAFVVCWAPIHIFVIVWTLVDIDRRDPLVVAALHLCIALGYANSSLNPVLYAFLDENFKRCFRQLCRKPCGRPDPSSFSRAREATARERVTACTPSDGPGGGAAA
# [10] = target: 5-hydroxytryptamine receptor 1A (Homo sapiens) (UniProt P08908); assay: 5-HT1A (h) CEREP ligand profiling; conditions: Compound concentration 10.0 uM
# Chain of 5-hydroxytryptamine receptor 1A (Homo sapiens) (P08908 whole entry): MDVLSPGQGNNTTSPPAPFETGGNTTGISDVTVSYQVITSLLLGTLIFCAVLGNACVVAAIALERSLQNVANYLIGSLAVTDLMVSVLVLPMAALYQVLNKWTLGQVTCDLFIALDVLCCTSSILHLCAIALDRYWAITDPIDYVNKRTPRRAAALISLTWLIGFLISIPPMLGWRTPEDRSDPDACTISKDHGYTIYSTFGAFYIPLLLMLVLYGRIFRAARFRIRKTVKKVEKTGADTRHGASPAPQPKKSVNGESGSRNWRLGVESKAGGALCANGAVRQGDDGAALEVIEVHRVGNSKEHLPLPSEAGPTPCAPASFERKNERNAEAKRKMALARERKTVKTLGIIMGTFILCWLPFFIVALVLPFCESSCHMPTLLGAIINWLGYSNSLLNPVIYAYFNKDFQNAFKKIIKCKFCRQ
# [11] = target: 5-hydroxytryptamine receptor 1B (Homo sapiens) (UniProt P28222); assay: 5-HT1B CEREP ligand profiling; conditions: Compound concentration 10.0 uM
# Chain of 5-hydroxytryptamine receptor 1B (Homo sapiens) (P28222 whole entry): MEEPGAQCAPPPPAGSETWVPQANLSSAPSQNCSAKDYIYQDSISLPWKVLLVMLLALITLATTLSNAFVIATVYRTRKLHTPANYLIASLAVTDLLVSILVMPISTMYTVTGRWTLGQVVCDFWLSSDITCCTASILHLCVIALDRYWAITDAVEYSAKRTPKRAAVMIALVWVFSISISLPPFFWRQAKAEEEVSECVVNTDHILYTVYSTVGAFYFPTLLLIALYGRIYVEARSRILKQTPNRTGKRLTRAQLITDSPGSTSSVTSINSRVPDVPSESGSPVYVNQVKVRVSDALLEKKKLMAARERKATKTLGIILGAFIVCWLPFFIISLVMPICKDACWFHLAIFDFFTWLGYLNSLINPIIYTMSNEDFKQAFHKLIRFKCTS
# [12] = CI channel CEREP ligand profiling
# [13] = target: Sodium-dependent dopamine transporter (Homo sapiens) (UniProt Q01959); assay: DA transporter (h) CEREP ligand profiling; conditions: Compound concentration 10.0 uM
# Chain of Sodium-dependent dopamine transporter (Homo sapiens) (Q01959 whole entry): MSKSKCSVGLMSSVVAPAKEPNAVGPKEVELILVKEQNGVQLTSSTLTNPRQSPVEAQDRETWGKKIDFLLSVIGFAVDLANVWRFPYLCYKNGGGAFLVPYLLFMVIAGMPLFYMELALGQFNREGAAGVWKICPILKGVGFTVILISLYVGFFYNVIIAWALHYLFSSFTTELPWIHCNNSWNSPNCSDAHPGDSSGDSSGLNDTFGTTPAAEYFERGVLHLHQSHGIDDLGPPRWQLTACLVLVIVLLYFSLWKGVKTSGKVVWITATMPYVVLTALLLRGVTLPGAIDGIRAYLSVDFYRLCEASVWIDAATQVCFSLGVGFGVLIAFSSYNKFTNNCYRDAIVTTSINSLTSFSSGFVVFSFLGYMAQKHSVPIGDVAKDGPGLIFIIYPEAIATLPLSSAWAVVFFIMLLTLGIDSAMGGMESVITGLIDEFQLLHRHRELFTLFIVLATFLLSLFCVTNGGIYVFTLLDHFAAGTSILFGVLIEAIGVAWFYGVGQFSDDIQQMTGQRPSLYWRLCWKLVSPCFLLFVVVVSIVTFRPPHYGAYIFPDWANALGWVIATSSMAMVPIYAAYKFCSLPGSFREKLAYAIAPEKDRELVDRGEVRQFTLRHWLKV
# [14] = target: Phosphodiesterase 3 (Homo sapiens) (UniProt Q14432+Q13370); assay: PDE 3 (h) CEREP ligand profiling; type: protein assay; conditions: Compound concentration 10.0 uM
# [15] = target: Alpha-1A adrenergic receptor (Homo sapiens) (UniProt P35348); conditions: Compound concentration 10.0 uM
# Chain of Alpha-1A adrenergic receptor (Homo sapiens) (P35348 whole entry): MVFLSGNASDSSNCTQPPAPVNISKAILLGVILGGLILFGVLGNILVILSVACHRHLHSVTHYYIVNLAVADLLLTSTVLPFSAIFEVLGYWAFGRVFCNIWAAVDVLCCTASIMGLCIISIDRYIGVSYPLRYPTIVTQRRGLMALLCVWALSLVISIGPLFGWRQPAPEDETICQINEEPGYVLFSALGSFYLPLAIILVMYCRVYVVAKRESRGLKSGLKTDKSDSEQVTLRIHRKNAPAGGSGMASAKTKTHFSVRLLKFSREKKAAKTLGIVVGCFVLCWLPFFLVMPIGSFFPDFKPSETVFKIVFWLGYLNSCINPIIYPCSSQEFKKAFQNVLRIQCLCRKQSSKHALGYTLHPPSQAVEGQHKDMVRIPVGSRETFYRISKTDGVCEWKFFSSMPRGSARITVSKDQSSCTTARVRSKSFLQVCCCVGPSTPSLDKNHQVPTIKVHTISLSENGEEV
# [16] = target: Beta-3 adrenergic receptor (Homo sapiens) (UniProt P13945); conditions: Compound concentration 10.0 uM
# Chain of Beta-3 adrenergic receptor (Homo sapiens) (P13945 whole entry, looked up): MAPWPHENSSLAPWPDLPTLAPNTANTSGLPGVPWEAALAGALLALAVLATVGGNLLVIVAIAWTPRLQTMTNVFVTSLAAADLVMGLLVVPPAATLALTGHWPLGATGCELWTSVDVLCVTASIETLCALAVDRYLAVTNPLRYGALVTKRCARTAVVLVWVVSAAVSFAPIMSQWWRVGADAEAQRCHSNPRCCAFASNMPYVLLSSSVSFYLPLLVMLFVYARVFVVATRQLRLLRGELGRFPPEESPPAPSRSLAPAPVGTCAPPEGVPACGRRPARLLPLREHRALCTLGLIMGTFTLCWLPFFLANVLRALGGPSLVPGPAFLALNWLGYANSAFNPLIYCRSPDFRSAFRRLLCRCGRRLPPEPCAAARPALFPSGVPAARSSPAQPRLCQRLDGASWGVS
# Chain of 5-hydroxytryptamine receptor 2C (P28335 whole entry): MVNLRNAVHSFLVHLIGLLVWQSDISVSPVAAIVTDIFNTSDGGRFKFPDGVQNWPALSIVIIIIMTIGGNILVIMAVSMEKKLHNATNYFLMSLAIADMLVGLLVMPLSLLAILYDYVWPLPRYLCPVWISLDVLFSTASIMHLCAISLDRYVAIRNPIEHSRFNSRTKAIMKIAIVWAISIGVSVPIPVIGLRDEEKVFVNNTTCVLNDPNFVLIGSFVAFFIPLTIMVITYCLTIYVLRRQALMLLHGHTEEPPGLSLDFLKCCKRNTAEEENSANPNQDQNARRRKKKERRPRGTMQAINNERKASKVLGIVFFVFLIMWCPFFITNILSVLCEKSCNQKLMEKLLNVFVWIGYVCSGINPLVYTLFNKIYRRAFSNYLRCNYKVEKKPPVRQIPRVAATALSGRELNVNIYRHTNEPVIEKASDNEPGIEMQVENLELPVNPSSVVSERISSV
# Chain of Alpha-2C adrenergic receptor (P18825 whole entry): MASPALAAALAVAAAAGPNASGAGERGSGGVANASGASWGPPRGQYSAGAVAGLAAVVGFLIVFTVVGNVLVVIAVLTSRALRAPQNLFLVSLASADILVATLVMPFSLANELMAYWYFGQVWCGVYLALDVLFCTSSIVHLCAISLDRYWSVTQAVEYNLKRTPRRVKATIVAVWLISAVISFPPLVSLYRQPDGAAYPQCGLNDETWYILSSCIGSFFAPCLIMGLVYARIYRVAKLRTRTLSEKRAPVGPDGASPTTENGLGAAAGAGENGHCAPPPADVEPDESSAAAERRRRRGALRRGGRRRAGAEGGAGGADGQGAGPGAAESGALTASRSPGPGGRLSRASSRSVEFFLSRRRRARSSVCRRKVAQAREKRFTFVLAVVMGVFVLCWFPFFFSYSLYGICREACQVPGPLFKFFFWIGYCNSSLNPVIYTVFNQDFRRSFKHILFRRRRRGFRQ
smiles,measurement,setting,value
O=C(Nc1cccnn1)N1CCC(=Cc2cccc(Oc3ccc(C(F)(F)F)cn3)c2)CC1,Ki,[1],1660 nM
same,Ki,[2],596 nM
same,Ki,[3],1140 nM
same,pKi,[3],5.94
same,inhibition,[4],15%
same,Ki,Cannabinoid receptor 2,5100 nM
same,inhibition,Cannabinoid receptor 2; Compound concentration 10.0 uM,55%
same,inhibition,[5],-8%
same,inhibition,[6],-1%
same,inhibition,[7],8%
same,inhibition,[8],3%
same,inhibition,[9],2%
same,inhibition,[10],6%
same,inhibition,[11],-3%
same,Ki,[12],3000 nM
same,inhibition,[12]; Compound concentration 10.0 uM,78%
same,inhibition,[13],-1%
same,inhibition,[14],10%
same,inhibition,[15],10.3%
same,inhibition,[16],0.69%
